Here are results for 22 compounds from ChEMBL document CHEMBL1201862, “PubChem BioAssay data set” (2004).

Test systems include DLD-1; DMS-114; DMS-273; HOP-18; KM-20L2; M19-MEL; SNB-78; XF498; RXF 631.
Common to all, as to assay: NCI-60 cell line screen, 48 h

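Compound exposure: 48 hours, 5 concentrations, 96-well plates. GI50: concentration for 50% inhibition of growth.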 Activity calls are given as the source filed them. Cut-off read from the data, not from the text of the source: active = GI50 up to about 1.1 µM and inactive = higher. Some results are limits rather than exact numbers.

For the compound `N#CC(N)(C(=O)CCC(=O)Nc1cccc(Cl)c1)c1ccc(Cl)cc1` (stereo unspecified), the GI50 in the test with DLD-1, in the test on DMS-114, in the test with DMS-273, in the test with HOP-18, with KM-20L2 and in the test with M19-MEL was > 100 µM (inactive) in each case. Moreover, the GI50 with SNB-78 and with XF498 was > 100 µM (inactive) in each case.
For the compound `CCOc1ccc2c(c1)[n+]([O-])c(-c1ccccc1)c(N)[n+]2[O-]`, the GI50 in the test with DLD-1 is > 100 µM (inactive); in the test with DMS-114 it was 34.9 µM (inactive); in the test with DMS-273, 77.1 µM (inactive); in the test with HOP-18 it was 53.6 µM (inactive); in the test on KM-20L2, 59 µM (inactive); in the test on M19-MEL it was 62.4 µM (inactive). In addition, the GI50 with XF498 was > 100 µM (inactive).
Turning to `CCOP(=O)(OCC)C1CC(C)OC1=O` (stereo unspecified), the GI50 with DLD-1, in the test with DMS-114, in the test with DMS-273, in the test on KM-20L2, in the test on M19-MEL and in the test on RXF 631 was > 100 µM (inactive) in each case. Besides, the GI50 with SNB-78 and with XF498 was > 100 µM (inactive) each time.
For the compound `COc1ccc(S(=O)(=O)NC(C)C(=O)O)cc1` (stereo unspecified), the GI50 in the test on DLD-1 is > 100 µM (inactive); with DMS-273 it was > 100 µM (inactive); in the test on HOP-18, > 100 µM (inactive); in the test on KM-20L2, > 100 µM (inactive); in the test with M19-MEL, > 100 µM (inactive); in the test with XF498 it was 21.9 µM (inactive).
Take `CCC12CCCC(=O)N1C(CO)C(c1ccccc1)O2` (stereo unspecified): the GI50 in the test with DLD-1 was > 100 µM (inactive); in the test with DMS-114 it was 38 µM (inactive); with DMS-273, > 100 µM (inactive); in the test on HOP-18, > 100 µM (inactive); with KM-20L2, > 100 µM (inactive); in the test with M19-MEL, > 100 µM (inactive). The GI50 with SNB-78 and with XF498 was > 100 µM (inactive) each time.
`CCCCCCC(=O)OC[n+]1ccc2c(C)c3[nH]c4ccc(OC)cc4c3c(C)c2c1`: the GI50 was 0.092 µM (active) in the test on DLD-1; 0.522 µM (active) with DMS-114; 0.029 µM (active) with DMS-273; 2.42 µM (inactive) in the test on KM-20L2; 0.953 µM (active) in the test on M19-MEL; 0.455 µM (active) with RXF 631. Further, the GI50 with SNB-78 was 1.06 µM (active).
As for `CCCCCCCCCCCCN(O)C(=O)c1ccccc1`, the GI50 is 26.4 µM (inactive) in the test on DLD-1; 62.1 µM (inactive) with HOP-18; 36.2 µM (inactive) in the test on KM-20L2; 37.8 µM (inactive) in the test on M19-MEL; 21.6 µM (inactive) in the test on XF498.
With `O=C(N/N=C/c1cc(-c2ccccc2Cl)c(-c2ccccc2Cl)o1)c1ccncc1`, the GI50 was > 100 µM (inactive) with DLD-1; 87.9 µM (inactive) in the test with DMS-114; > 100 µM (inactive) in the test on KM-20L2; > 100 µM (inactive) with M19-MEL; > 100 µM (inactive) with RXF 631; > 100 µM (inactive) in the test on XF498.
Consider `Clc1ccc(C2=NN(c3ccccc3)C3c4cc(Br)ccc4OCC23)cc1` (stereo unspecified), for which the GI50 was > 100 µM (inactive) in the test on DLD-1; 86.1 µM (inactive) with DMS-114; > 100 µM (inactive) with DMS-273; > 100 µM (inactive) in the test on HOP-18; > 100 µM (inactive) in the test with KM-20L2; > 100 µM (inactive) in the test with M19-MEL. In addition, the GI50 in the test with RXF 631 is > 100 µM (inactive); with SNB-78, > 100 µM (inactive); with XF498 it was 66.2 µM (inactive).
Consider `COc1cccc2c1C(=O)c1c(O)c3c(c(O)c1C2=O)C[C@@](O)(C(=O)CO)C[C@@H]3OC1CC(N2CCOCC2C#N)C(O)C(C)O1` (stereo partly specified), for which the GI50 in the test with DLD-1 is 2.26e-05 µM (active); with DMS-273 it was 1.93e-05 µM (active); with HOP-18 it was 0.0025 µM (active); in the test on KM-20L2, 0.0025 µM (active); with RXF 631 it was 8.24e-05 µM (active); in the test on SNB-78 it was 0.0025 µM (active).
Regarding `CCC1(C)NN=c2s/c(=C/c3ccc(OC)cc3)c(=O)n2N1` (stereo unspecified), the GI50 with DLD-1, in the test on DMS-273, in the test on KM-20L2, in the test on SNB-78 and in the test on XF498 was > 100 µM (inactive) throughout.
For `CC(C)(C)c1cc2ccc(C(N)=O)cc2c(=O)[nH]1`, the GI50 in the test on DLD-1, in the test with DMS-114, in the test on DMS-273, in the test with HOP-18, with KM-20L2 and in the test on M19-MEL was > 100 µM (inactive) each time. The GI50 in the test on RXF 631 and with SNB-78 was > 100 µM (inactive) in each case.
As for `CCCN(CCC)CCc1cc(C(C)=O)n(S(=O)(=O)c2ccc(C)cc2)c1`, the GI50 in the test on DLD-1, in the test with DMS-114, in the test with DMS-273, in the test on HOP-18, in the test with M19-MEL and in the test with SNB-78 was > 100 µM (inactive) each time.
For the compound `CC1=NN(c2ccccc2)C(=O)C1=C1SCCCS1`, the GI50 in the test on DLD-1 was 21.5 µM (inactive); in the test with DMS-114, 20.8 µM (inactive); with DMS-273 it was 32.7 µM (inactive); with HOP-18, 20.8 µM (inactive); with KM-20L2, 31.4 µM (inactive); in the test on M19-MEL, 32.1 µM (inactive). Moreover, the GI50 with SNB-78 is 66.2 µM (inactive); in the test on XF498, 16.6 µM (inactive).
Consider `CC(=O)Nc1ccc(C2CC(c3ccc([N+](=O)[O-])cc3)=Nc3ccccc3[S+]2[O-])cc1` (stereo unspecified), for which the GI50 was 15.9 µM (inactive) in the test on DLD-1; 21.2 µM (inactive) in the test with DMS-114; 13.6 µM (inactive) in the test with DMS-273; 27.2 µM (inactive) in the test on HOP-18; 21.6 µM (inactive) in the test on KM-20L2; 15.2 µM (inactive) in the test on M19-MEL. Further, the GI50 in the test on RXF 631 was > 10 µM (inactive); with XF498, 24.2 µM (inactive).
Consider `COc1ccc(CC2=NCCc3cc(OC)c(OC)cc32)cc1Br`, for which the GI50 is 19.1 µM (inactive) in the test with DLD-1; 10.2 µM (inactive) in the test on DMS-114; 12.7 µM (inactive) in the test with DMS-273; > 100 µM (inactive) in the test on HOP-18; 4.11 µM (inactive) with KM-20L2; 27.5 µM (inactive) in the test on M19-MEL. The GI50 was 58.1 µM (inactive) with SNB-78 and 22.8 µM (inactive) in the test on XF498.
In the case of `O=c1c2cccc3cccc(c4n1CCN=4)c32`, the GI50 in the test on DLD-1 was 52.5 µM (inactive); in the test on DMS-114, > 100 µM (inactive); in the test on DMS-273, 97.7 µM (inactive); in the test with HOP-18, > 100 µM (inactive); with KM-20L2 it was > 100 µM (inactive); in the test with M19-MEL it was > 100 µM (inactive). For the same compound, the GI50 in the test on SNB-78 and with XF498 was > 100 µM (inactive) throughout.
As for `O=c1[nH]c2ccc([N+](=O)[O-])cc2nc1/C(=N/Nc1ccccc1)C(O)c1ccco1` (stereo unspecified), the GI50 in the test on DLD-1 was > 100 µM (inactive); in the test on DMS-114, 18.9 µM (inactive); in the test on DMS-273 it was 42.4 µM (inactive); with KM-20L2 it was 41.1 µM (inactive); in the test with M19-MEL it was 85.9 µM (inactive); in the test on SNB-78, > 100 µM (inactive). The GI50 with XF498 was > 100 µM (inactive).
With `Nc1ccc(C(=O)NN2C(=O)C(Cl)C2c2cccc([N+](=O)[O-])c2)cc1` (stereo unspecified), the GI50 is 17.9 µM (inactive) in the test on DLD-1; 18.7 µM (inactive) in the test with DMS-114; 16 µM (inactive) in the test with DMS-273; 25.3 µM (inactive) in the test on KM-20L2; 19.8 µM (inactive) in the test with M19-MEL; 63.2 µM (inactive) in the test with SNB-78. Besides, the GI50 with XF498 is 13.2 µM (inactive).
As to `O=S1(=O)NN=C(NCc2ccc(Cl)c(Cl)c2)c2ccccc21`, the GI50 in the test on DLD-1 is 56.9 µM (inactive); in the test on DMS-114 it was > 100 µM (inactive); in the test with DMS-273, > 100 µM (inactive); in the test on HOP-18 it was > 100 µM (inactive); with KM-20L2 it was > 100 µM (inactive); in the test on M19-MEL, > 100 µM (inactive). In addition, the GI50 in the test on SNB-78 is 97.5 µM (inactive).
Regarding `COC(=O)/C(Cl)=C1/CC1COCc1ccccc1` (stereo unspecified), the GI50 in the test with DLD-1 was 20.4 µM (inactive); in the test with DMS-114 it was 28.8 µM (inactive); in the test with DMS-273 it was 20.7 µM (inactive); with KM-20L2, 41.4 µM (inactive); in the test with M19-MEL, 33.3 µM (inactive); with SNB-78, 45.9 µM (inactive). Besides, the GI50 in the test on XF498 is 26.4 µM (inactive).
As to `OCC1OC(n2cnc3c2NC=NC[C@H]3O)CC1O` (stereo partly specified), the GI50 is 494 µM (inactive) with DLD-1; 426 µM (inactive) in the test on DMS-114; 489 µM (inactive) with DMS-273; > 500 µM (inactive) in the test on KM-20L2; 354 µM (inactive) in the test on M19-MEL; 483 µM (inactive) with SNB-78. The GI50 in the test with XF498 was 442 µM (inactive).
